Experimental data as given in US20040023884A1, “Biologically active peptides from functional domains of bactericidal/permeability-increasing protein and uses thereof” (priority 1993, published 2004).
pKd: −log10 of the molar value. Square brackets hold non-standard residues; d marks the D form. Ends that are not written are not given here. 1Nal = N[C@@H](Cc1cccc2ccccc12)C(=O)O

Legend:
[1] = LPS binding by tryptophan fluorescence quenching; details: for pKd: Stern-Volmer plots
Excerpt: (§1) The naturally-occurring amino acid tryptophan can emit light (i.e., it fluoresces) having a wavelength between 300 and 400 nm after excitation with light having a wavelength of between about 280 nm and 290 nm, preferably 285 nm. The amount of emitted light produced by such fluorescence is known to be affected by the local environment, including pH and buffer conditions, as well as binding interactions between proteins and other molecules. Some BPI functional domain peptides derived from domains II and III contain tryptophan residues, and tryptophan fluorescence was used to assay binding interactions between the BPI functional domain peptides of the invention and LPS or heparin.
(§2) Tryptophan fluorescence of the BPI functional domain peptides of the invention was determined in the presence or absence of LPS or heparin using a SPEX Fluorolog fluorimeter. Samples were excited with 285 nm light using a 0.25 nm slitwidth. Emission wavelengths were scanned between 300-400 nm using a 1.25 nm slitwidth. Data were accumulated as the average of three determinations performed over an approximately 5 min time span. Samples were maintained at 25° C. or 37° C. during the course of the experiments using a circulating water bath. Crab endotoxin binding protein (CEBP), a protein wherein the intrinsic fluorescence of tryptophan residues is affected by binding to LPS, was used as a positive control. (See Wainwright et al., 1990, Cellular and Molecular Aspects of Endotoxin Reactions, Nowotny et al., eds., Elsevier Science Publishing B.V., The Netherlands, pp. 315-325).
(§3) Kd values were determined by Scatchard-type Stern-Volmer plots of the quenching data as the negative inverse of the slope of such plots. Comparing the data for BPI.10, BPI.46 and BPI.47, it is seen that as the Kd decreased (indicating an increase in avidity for LPS), the percent fluorescence quenching increased. The differences between these peptides include replacement of basic and polar amino acid residues with non-polar residues in […] as compared with BPI.10. In contrast, as the Kd of heparin binding decreased, a corresponding increase in the percentage of fluorescence quenching was not detected.

[2] = Heparin binding by tryptophan fluorescence quenching; details: for pKd: Stern-Volmer plots
Excerpt: as §1, §2, §3

[3] = test system: E. coli 0111:B4 (smooth) bacteria; assay: Radial diffusion bactericidal assay, E. coli 0111:B4; assay type: cell-based; details: radial diffusion; for pmol added to well to achieve a 30 mm^2 bactericidal zone, E. coli O111:B4: PROBIT analysis, E. coli O111:B4 (smooth); for bactericidal activity (in words): E. coli 0111:B4
[4] = test system: Klebsiella pneumoniae 19645; assay: Radial diffusion bactericidal assay, antibiotic resistant Klebsiella pneumoniae 19645; assay type: cell-based
Description: (§4) These studies were conducted substantially following the procedures used in Example 2.
In order to test the bactericidal activity of BPI peptides on antibiotic resistant strains of Klebsiella pneumoniae, the multi-resistant clinically isolated strain 19645 was tested as in Example 2 and above. […] This strain was obtained from the Baxter Microscan® library (Sacramento, Calif.). An overnight culture of Klebsiella pneumoniae 19645 and a non-resistant strain (ATCC 29011) were diluted 1:50 into fresh tryptic soy broth and incubated for 3 hours at 37° C. to attain log phase. The overnight cultures were tested as described in Example 2 and part A above.

[5] = test system: rough mutant E. coli J5 bacteria; assay: Radial diffusion bactericidal assay, E. coli J5; assay type: cell-based; details: radial diffusion; for pmol added to well to achieve a 30 mm^2 bactericidal zone, E. coli J5: PROBIT analysis, E. coli J5 (rough); for bactericidal activity (in words): E. coli J5
Outline: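 Log-phase bacteria (3 h at 37 °C in tryptic soy broth), washed in 10 mM sodium phosphate pH 7.4, were embedded at 4×10^6 CFU/mL in underlayer agarose. BPI proteolytic fragments (5 or 10 μL) went into 3 mm wells for 3 h at 37 °C, then agarose overlay and overnight 37 °C growth. Clear zones were measured by micrometer.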

Staphylococcus aureus = assay: Radial diffusion bactericidal assay, Staphylococcus aureus; assay type: cell-based; details: radial diffusion; PROBIT analysis; S. aureus
RAW 264.7 cells = assay: LPS neutralization cellular proliferation assay, RAW 264.7 cells; assay type: cell-based, mouse
Outline: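 Mouse RAW 264.7 cells were primed 24 h with 50U/mL mouse γ-interferon, then exposed about 15 h to E. coli O113 LPS in serum-free RPMI with or without BPI peptides at 25 ng/mL–50 μg/mL. Proliferation was quantified by [^3H]-thymidine uptake, 1 μCi/well, added at 5 h.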

[6] = test system: multi-resistant strain E. coli 19536; assay: Radial diffusion bactericidal assay, multi-antibiotic resistant E. coli 19536; assay type: cell-based
Description: as §4
In order to test the bactericidal activity of BPI peptides against multi-antibiotic resistant E. coli, a multi-resistant strain E. coli 19536 (ampR 16 μg/mL; ceftazidimeR>16 μg/mL; ceftriazoneR>16 μg/mL) was tested. This strain is a clinical isolate obtained from the Baxter Microscan® library (Sacramento, Calif.). An overnight culture of E. coli 19536 was tested as described in Example 2 and part A above. Test BPI peptides were 2-fold serially diluted in D-PBS starting at about 1 mg/mL.

[7] = 3H-heparin binding assay (affinity and capacity); details: for Heparin Capacity: heparin bound at saturation; for pKd: read-out: Heparin Affinity
Outline: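 Bound 3H-heparin was counted by liquid scintillation after 1 h incubation at 4 °C with fragments immobilised on PVDF-bottomed wells, then washing in blocking buffer. Signal was corrected for BSA-related background, and varying amounts of rBPI23 were used as positive control.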

C. albicans = assay: Radial diffusion fungicidal assay, Candida albicans; assay type: cell-based; details: radial diffusion
E. coli 0111:B4 (smooth) = assay: Broth antibacterial assay, E. coli 0111:B4; assay type: cell-based
Description: (§5) In additional experiments, broth antibacterial assays were conducted to further determine the bactericidal activity of certain of the BPI peptides. Specifically, either E. coli J5 (rough) or E. coli 0111:B4 (smooth) bacteria were selected from single colonies on agar plates and used to inoculate 5 mL of Mueller Hinton broth and incubated overnight at 37° C. with shaking. The overnight culture was diluted (˜1:50) into 5 mL fresh broth and incubated at 37° C. to log phase (˜3 hours). Bacteria were pelleted for 5 minutes at 3000 rpm (1500×g). Bacterial pellets were resuspended in 5 mL PBS and diluted to 2×10^6 cells/mL in the Mueller Hinton broth (wherein 1 OD570 unit equals 1.25×10^9 CFU/mL). The BPI functional domain peptides to be tested were diluted to 200 μg/mL in broth and serially diluted 2-fold in 96 well culture plates (100 μL volume). All items were at 2-fold final concentration and experiments were conducted in triplicate. Bacteria were added at 100 μL/well and the plates were incubated on a shaker at 37° C. for a 20 hour period. The plates were then read on an ELISA plate multiple reader at 590 nm. One of the triplicate wells from each peptide concentration was selected for colony forming unit (CFU) determination. A 30 μL aliquot was added to 270 μL of PBS and further ten-fold serial dilutions were performed. Then a 50 μL aliquot was plated on tryptic soy agar and incubated overnight. Colonies were counted and final bacterial concentrations determined. The results of these assays are depicted in FIGS. 9e (for E. coli J5) and 9f (for E. coli 0111:B4).

E. coli J5 (rough) = assay: Broth antibacterial assay, E. coli J5; assay type: cell-based
Description: as §5

Substance	Quenching LPS [1] [%]	pKd [1]	Quenching Heparin [2] [%]	pKd [2]	pmol added to well to achieve a 30 mm^2 bactericidal zone, E. coli O111:B4 [3]	bactericidal activity (in words) [4]	pmol added to well to achieve a 30 mm^2 bactericidal zone, E. coli J5 [5] [pmol]	pmol added to well to achieve a 30 mm^2 bactericidal zone, S. aureus (Staphylococcus aureus)	EC50 (peptide concentration at which the growth inhibitory effect of LPS was reversed by 50%) (RAW 264.7 cells) [µg/mL]	IC50 (peptide concentration at which RAW cell growth was inhibited by 50%) (RAW 264.7 cells) [µg/mL]	bactericidal activity (in words) [6]	Heparin Capacity [7] [ng]	pKd [7]	C. albicans: pmol required for 30 mm^2 zone (C. albicans) [pmol]	bactericidal activity (in words) [5]	heparin binding capacity (in words) [7]	bactericidal activity (in words) [3]	bactericidal activity (in words) (E. coli 0111:B4 (smooth))	bactericidal activity (in words) (E. coli J5 (rough))
BPI 73 (IKISGKWKAQFRFLK)	47	7.18	19	6.15	–	–	–	–	–	–	–	–	–	–	–	–	–	–	–
IKISGKAβ-(1-naphthyl)KAAβ-(1-naphthyl)KRFLK (IKISGK[1Nal]KA[1Nal]KRFLK) [BPI.119]	–	–	–	–	536.44 pmol	active against antibiotic resistant Klebsiella	106.70	166,163.83 pmol	–	–	–	–	–	–	–	–	–	–	–
IKISGKWKAFFRFLK [BPI.88]	–	–	–	–	540.15 pmol	–	70.32	9,051.04 pmol	>50	6.2 ± 7.5	activity against multi-antibiotic resistant E. coli	352.8	5.79	–	–	–	–	–	–
IKISGKWKAQKRFLKKSKVGWLIQLFHKK [BPI.63]	–	–	–	–	511.61 pmol	active against antibiotic resistant Klebsiella	86.94	2,101.84 pmol	0.08 ± 0.02	7.1 ± 0.02	activity against multi-antibiotic resistant E. coli	305.1	6.22	>1006.34	highly bactericidal	extremely high heparin capacity	–	–	–
IKISGKWKAWKRFLKK [BPI.103]	–	–	–	–	415.19 pmol	active against antibiotic resistant Klebsiella	165.18	4,705.95 pmol	–	–	–	–	–	–	–	–	–	–	–
KRFLKKWKAQKRFLK [BPI.9]	–	–	–	–	5,337.50 pmol	–	476.60	–	–	–	–	212.5	5.94	–	exhibited bactericidal activity	–	exhibited bactericidal activity	significant bactericidal activity	significant bactericidal activity
KRFLKKWKAQKRFLKKWKAQKRFLK [BPI.10.1]	–	–	–	–	–	–	–	–	–	–	–	–	–	–	exhibited bactericidal activity	–	exhibited bactericidal activity	significant bactericidal activity	significant bactericidal activity
KWKAQKRFLKKWKAAARFLK [BPI.47]	41	6.94	47	5.66	576.74 pmol	–	97.73	41,213.59 pmol	0.9 ± 0.3	9.8 ± 0.1	–	576.4	5.72	–	highly bactericidal	extremely high heparin capacity	–	–	–
QKRFLKKWKAQKRFLKKWKAQKRFLK [BPI.10.2]	–	–	–	–	–	–	–	–	–	–	–	–	–	–	exhibited bactericidal activity	–	exhibited bactericidal activity	significant bactericidal activity	significant bactericidal activity
